In patent US12258338B2, “Modulators of the integrated stress response pathway” (EVOTEC INTERNATIONAL GMBH, priority 2019, dated 2025):
≈ marks a conversion by molar mass, not a printed value. Where two headings read alike, the source gives them in different places.

How the values were obtained:
[1] = tested on: ATF4; assay: HEK-ATF4 High Content Imaging assay (prevention of Tunicamycin induced ISR; ATF4 signal ratio between nucleus and cytoplasm); assay type: cell-based; conditions: Homo sapiens; Wild-type HEK293 cells, Tunicamycin induced ISR, 6 h; read-out: IIEK-ATF4 Activity
Protocol: HEK-ATF4 High Content Imaging Assay
Example compounds were tested in the HEK-ATF4 High Content Imaging assay to assess their pharmacological potency to prevent Tunicamycin induced ISR. Wild-type HEK293 cells were plated in 384-well imaging assay plates at a density of 12,000 cells per well in growth medium (containing DMEM/F12, 10% FBS, 2 mM L-Glutamine, 100 U/mL Penicillin-100 μg/mL Streptomycin) and incubated at 37° C., 5% CO2. 24 h later, the medium was changed to 50 μL assay medium per well (DMEM/F12, 0.3% FBS, 2 mM L-Glutamine, 100 U/mL Penicillin-100 μg/mL Streptomycin). Example compounds were serially diluted in DMSO, spotted into intermediate plates and prediluted with assay medium containing 3.3 μM Tunicamycin to give an 11-fold excess of final assay concentration. In addition to the example compound testing area, the plates also contained multiples of control wells for assay normalization purposes, wells containing Tunicamycin but no example compounds (High control), as well as wells containing neither example compound nor Tunicamycin (Low control). The assay was started by transferring 5 μL from the intermediate plate into the assay plates, followed by incubation for 6 h at 37° C., 5% CO2. Subsequently, cells were fixed (4% PFA in PBS, 20 min at r.t.) and submitted to indirect ATF4 immunofluorescence staining (primary antibody rabbit anti ATF4, clone D4B8, Cell Signaling Technologies; secondary antibody Alexa Fluor 488 goat anti-rabbit IgG (H+L), Thermofisher Scientific). Nuclei were stained using Hoechst dye (Thermofisher Scientific), and plates were imaged on an Opera Phenix High Content imaging platform equipped with 405 nm and 488 nm excitation. Finally, images were analyzed using script based algorithms. The main readout HEK-ATF4 monitored the ATF4 signal ratio between nucleus and cytoplasm. Tunicamycin induced an increase in the overall ATF4 ratio signal, which was prevented by ISR modulating example compounds. In addition, HEK-CellCount readout was derived from counting the number of stained nuclei corresponding to healthy cells. This readout served as an internal toxicity control.

[2] = target: T1, human ERG potassium channel (hERG) (Homo sapiens, UniProt Q12809); assay: hERG channel tail current recording using in vitro Rapid ICE (automated patch-clamp, QPatch HTX); assay type: cell-based; conditions: Table 26
T1 construct: expressed in transfected cells; host or cells: HEK293, stably transfected, tetracycline-inducible promoter
T1 sequence (Q12809 whole entry): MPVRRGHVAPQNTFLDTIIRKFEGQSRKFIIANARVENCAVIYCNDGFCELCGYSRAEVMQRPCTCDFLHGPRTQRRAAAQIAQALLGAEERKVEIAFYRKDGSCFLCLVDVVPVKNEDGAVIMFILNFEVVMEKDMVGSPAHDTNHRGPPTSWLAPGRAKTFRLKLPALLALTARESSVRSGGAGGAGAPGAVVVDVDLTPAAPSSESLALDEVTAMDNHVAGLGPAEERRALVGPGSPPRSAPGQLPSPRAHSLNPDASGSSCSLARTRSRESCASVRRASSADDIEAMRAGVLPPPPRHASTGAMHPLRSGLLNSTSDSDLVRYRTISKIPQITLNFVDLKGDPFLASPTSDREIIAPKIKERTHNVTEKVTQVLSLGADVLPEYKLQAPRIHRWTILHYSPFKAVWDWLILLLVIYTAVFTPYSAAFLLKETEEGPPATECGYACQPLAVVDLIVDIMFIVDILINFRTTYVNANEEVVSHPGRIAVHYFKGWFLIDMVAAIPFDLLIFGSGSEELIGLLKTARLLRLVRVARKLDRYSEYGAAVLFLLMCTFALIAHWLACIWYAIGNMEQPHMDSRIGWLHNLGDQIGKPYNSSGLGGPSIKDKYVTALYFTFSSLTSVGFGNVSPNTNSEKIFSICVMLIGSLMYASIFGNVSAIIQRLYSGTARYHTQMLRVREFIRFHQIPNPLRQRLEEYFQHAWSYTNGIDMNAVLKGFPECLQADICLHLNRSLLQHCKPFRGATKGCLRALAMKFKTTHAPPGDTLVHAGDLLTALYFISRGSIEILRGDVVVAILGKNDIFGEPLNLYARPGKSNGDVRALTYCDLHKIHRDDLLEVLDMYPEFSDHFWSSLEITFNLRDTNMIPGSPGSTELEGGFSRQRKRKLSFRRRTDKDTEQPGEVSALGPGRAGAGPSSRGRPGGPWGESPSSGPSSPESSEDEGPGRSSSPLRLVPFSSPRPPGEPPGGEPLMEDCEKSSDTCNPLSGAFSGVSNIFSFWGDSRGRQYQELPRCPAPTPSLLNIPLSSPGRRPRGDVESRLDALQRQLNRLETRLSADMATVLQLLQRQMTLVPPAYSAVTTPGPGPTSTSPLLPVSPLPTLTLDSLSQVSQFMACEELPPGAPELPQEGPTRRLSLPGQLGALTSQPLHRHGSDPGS
Protocol: Protocol—Measure of the Effect on hERG Channel by Tail Current Recording Using In Vitro Rapid ICE
The potency of the example compounds in inhibiting human ERG potassium channel (hERG) tail current was assessed in a recombinant HEK293 cell line stably transfected with hERG cDNA under an inducible promoter, using Rapid ICE (rapid ion channel electrophysiology) assay. Rapid ICE is an automated patch-clamp assay utilizing the QPatch HTX system (Sophion Bioscience A/S). Briefly, inducible HEK hERG cells were cultivated in minimum essential medium supplemented with 10% FBS, 1% non-essential amino acids, 1% sodium pyruvate, 2 mM 1-glutamine, 15 μg/mL blasticidin, and 100 μg/mL hygromycin. hERG channel expression induction was obtained by adding 10 μg/mL tetracycline for 24, 48, or 72 h before recordings.
On the day of the experiment, cells were detached with TrypLE and prepared to be loaded on the instrument. Cells were resuspended in 7 mL of Serum-Free Media containing 25 mM Hepes and soybean trypsin inhibitor and immediately placed in the cell storage tank of the machine. The composition of the extracellular buffer was (mM): NaCl 137, KCl 4, CaCl2 1.8, MgCl2 1.0, d-glucose 10, N-2-hydroxyethylpiperazine-N′-2-ethanesulfonic acid (HEPES) 10, pH 7.4 with 1 M NaOH. The composition of the intracellular solution was (mM): KCl 130, MgCl2 1.0, ethylene glycol-bis(β-aminoethyl ether)-N,N,N′,N′-tetraacetic acid (EGTA) 5, MgATP 5, HEPES 10, pH 7.2 with 1 M KOH. The voltage protocol included the following steps: step from −80 to −50 mV for 200 ms, +20 mV for 4.8 s, step to −50 mV for 5 s, then step to the holding potential of −80 mV. Compounds were dissolved in DMSO and diluted in extracellular buffer to achieve final test concentrations (0.3, 3, and 30 μM) in 0.3% DMSO. The voltage protocol was run and recorded continuously during the experiment. The vehicle, corresponding to 0.3% DMSO in extracellular buffer was then applied for 3 min, followed by the test substance in triplicate. The standard combined exposure time was 5 min. The average of tail current amplitude values recorded from four sequential voltage pulses was used to calculate for each cell the effect of the test substance by calculating the residual current (% control) compared with vehicle pretreatment. Data were reported as % inhibition for each concentration tested, and IC50 values were estimated using QPatch software. At least two cells were tested, and even more if results diverged.

[3] = Thermodynamic (Equilibrium) solubility in selected buffer; assay type: physicochemical; conditions: aqueous buffer, thermodynamic from solid, Table 25
Protocol: Protocol—Thermodynamic (Equilibrium) Solubility in Selected Buffer
Example compounds were tested in the Thermodynamic (Equilibrium) solubility in selected buffer assay. The test compound, in powder form, was weighted into a 4 mL glass vial and a calculated volume of selected medium was added to reach the target concentration of the solubility test (1 mg/mL). The solution was then stirred overnight at r.t. protected from the light. The solution was filtered through a 0.45 μm PTFE membrane at ambient temperature. An aliquot of the resulting filtrate was quantified using UPLC-UV method described below against a reference solution of the test compound, 0.8 mg/mL in DMSO. Media compositions: Phosphate buffer 50 mM (pH=2.0) […] of NaH2PO4, H2O in 200 mL of ultrapurified water adjusted at pH 2 with phosphoric acid 85%; Acetate buffer 50 mM (pH=5.5) 820 mg of anhydrous sodium acetate in 200 mL of ultrapurified water adjusted at pH 5.5 with acetic acid 99.8%; Phosphate buffer 50 mM (pH=7.4) 40.5 mL of Na2HPO4 0.1 M solution+9.5 mL of NaH2PO4 0.1 M solution. Analytical conditions: UPLC-UV-MS analyses were performed with a Waters Acquity UPLC HClass-PDA-QDa system using a reverse phase Acquity BEH C18 column (2.1 mm×50 mm, 1.7 μm; temperature: 40° C.) and a gradient of 10-95% B (A=0.1% formic acid in H2O; B=0.05% formic acid in ACN) over 1.8 min then 100% B for 0.8 min, with an injection volume of 0.4 μL at flow rate of 0.65 mL/min. UV chromatograms were recorded at 220 nm, 254 nm and 290 nm using a photo diode array detector. Mass spectra were recorded in the 150 to 900 M/Z range at a sampling rate of 10 scans per sec using a QDa detector. Data were integrated using Empower®3 software. Data Analysis: Equilibrium solubility of the test compound in the selected medium was calculated through the ratio of the surface area of the UV chromatographic peak of the compound in the filtrate to the surface of the UV chromatographic peak of the compound in the reference solution.

SMILES	IC50 [1] [µM]	IC50 [2] [µM]	solubility ([3]; acetate buffer 50 mM, pH 5.5, read-out: Solubility (μg/mL) pH 5.5) [µg/mL]	solubility ([3]; phosphate buffer 50 mM, pH 2.0, read-out: Solubility (μg/mL) pH 2.0) [µg/mL]	solubility ([3]; phosphate buffer 50 mM, pH 7.4, read-out: Solubility (μg/mL) pH 7.4) [µg/mL]
O=C(COc1ccc(Cl)c(F)c1)N[C@@H]1CC[C@H](c2nnc([C@H]3C[C@@H](OC(F)(F)F)C3)o2)NC1=O (racemic) [Example 38, rac-2-(4-chloro-3-fluorophenoxy)-N-[(3R,6R)-2-oxo-6-{5-[(1s,3s)-3-(trifluoromethoxy)cyclobutyl]-1,3,4-oxadiazol-2-yl}piperidin-3-yl]acetamide]	2 to 15	> 5			
O=C(COc1ccc(Cl)c(F)c1)N[C@H]1CC[C@H](c2nnc(OCCO[C@@H]3CC3(F)F)o2)NC1 (single isomer, unassigned) [Example 102]	0.5 to 2	1 to 5			
O=C(COc1ccc(Cl)c(F)c1)N[C@H]1CC[C@H](c2nnc(OCCO[C@H]3CC3(F)F)o2)NC1 (single isomer, unassigned) [Example 103]	0.001 to 0.5	> 5			
O=C(COc1ccc(Cl)c(F)c1)N[C@H]1CC[C@H](c2nnc([C@H]3C[C@@H](OC4CC4)C3)o2)NC1 (single isomer, unassigned) [Example 105]	0.5 to 2	> 5			
C[C@@H](Oc1ccc(Cl)cc1)C(=O)N[C@H]1CC[C@H](c2nnc(-c3ccc(C(F)(F)F)cc3)o2)NC1 (single isomer, unassigned) [Example 106]	2 to 15	1 to 5			
O=C(COc1ccc(Cl)c(F)c1)N[C@H]1CC[C@H](c2nnc(-c3ccc(Cl)cc3)o2)NC1=O (single isomer, unassigned) [Example 108]	2 to 15	0.001 to 1			
O=C(COc1ccc(Cl)c(F)c1)N[C@@H]1CC[C@@H](c2nnc(-c3ccc(Cl)cc3)o2)NC1=O (single isomer, unassigned) [Example 109]	0.001 to 0.5	0.001 to 1			
O=C(COc1ccc(Cl)c(F)c1)N[C@H]1CC[C@H](c2nnc(-c3ccc(C(F)(F)F)cc3)o2)NC1 [Example 2, 2-(4-chloro-3-fluorophenoxy)-N-[(3S,6R)-6-{5-[4-(trifluoromethyl)phenyl]-1,3,4-oxadiazol-2-yl}piperidin-3-yl]acetamide]	0.001 to 0.5	0.001 to 1			
CC(Oc1ccc(Cl)cc1)C(=O)N[C@H]1CC[C@H](c2nnc(-c3ccc(C(F)(F)F)cc3)o2)NC1 (stereo partly drawn) [Example 4, 2-(4-chlorophenoxy)-N-[(3S,6R)-6-{5-[4-(trifluoromethyl)phenyl]-1,3,4-oxadiazol-2-yl}piperidin-3-yl]propanamide]		0.001 to 1			
O=C(COc1cnc(Cl)c(F)c1)N[C@H]1CC[C@H](c2nnc(-c3ccc(Cl)cc3)o2)NC1 [Example 7, 2-[(6-chloro-5-fluoropyridin-3-yl)oxy]-N-[(3S,6R)-6-[5-(4-chlorophenyl)-1,3,4-oxadiazol-2-yl]piperidin-3-yl]acetamide]	0.001 to 0.5	0.001 to 1			
O=C(COc1ccc(Cl)c(Cl)c1)N[C@H]1CC[C@H](c2nnc([C@H]3C[C@@H](OC(F)(F)F)C3)o2)NC1 [Example 9, 2-(3,4-dichlorophenoxy)-N-[(3S,6R)-6-{5-[(1s,3s)-3-(trifluoromethoxy)cyclobutyl]-1,3,4-oxadiazol-2-yl}piperidin-3-yl]acetamide]	0.001 to 0.5	1 to 5			
O=C(COc1ccc(C(F)(F)F)c(Cl)c1)N[C@H]1CC[C@H](c2nnc([C@H]3C[C@@H](OC(F)(F)F)C3)o2)NC1 [Example 10, 2-[3-chloro-4-(trifluoromethyl)phenoxy]-N-[(3S,6R)-6-{5-[(1s,3s)-3-(trifluoromethoxy)cyclobutyl]-1,3,4-oxadiazol-2-yl}piperidin-3-yl]acetamide]	0.001 to 0.5	1 to 5			
COc1cc(OCC(=O)N[C@H]2CC[C@H](c3nnc(OCCOC(F)(F)F)o3)NC2)ccc1C(F)(F)F [Example 15, 2-[3-methoxy-4-(trifluoromethyl)phenoxy]-N-[(3S,6R)-6-{5-[2-(trifluoromethoxy)ethoxy]-1,3,4-oxadiazol-2-yl}piperidin-3-yl]acetamide]	0.001 to 0.5	> 5			
N#Cc1cc(OCC(=O)N[C@H]2CC[C@H](c3nnc(OCCOC(F)(F)F)o3)NC2)ccc1Cl [Example 29, 2-(4-chloro-3-cyanophenoxy)-N-[(3S,6R)-6-{5-[2-(trifluoromethoxy)ethoxy]-1,3,4-oxadiazol-2-yl}piperidin-3-yl]acetamide]	0.5 to 2	> 5			
O=C(COc1ccc(Cl)c(F)c1)N[C@@H]1CN[C@@H](c2nnc(-c3ccc(Cl)cc3)o2)C1 [Example 31, 2-(4-chloro-3-fluorophenoxy)-N-[(3S,5R)-5-[5-(4-chlorophenyl)-1,3,4-oxadiazol-2-yl]pyrrolidin-3-yl]acetamide]	2 to 15	0.001 to 1			
O=C(COc1ccc(Cl)c(F)c1)N[C@H]1CC[C@H](c2nnc(OCCC(F)(F)F)o2)NC1 [Example 33, 2-(4-chloro-3-fluorophenoxy)-N-[(3S,6R)-6-[5-(3,3,3-trifluoropropoxy)-1,3,4-oxadiazol-2-yl]piperidin-3-yl]acetamide]	0.001 to 0.5	1 to 5			
Cn1nc(-c2nnc([C@H]3CC[C@H](NC(=O)COc4ccc(Cl)c(F)c4)CN3)o2)cc1Cl [Example 51, N-[(3S,6R)-6-[5-(5-chloro-1-methyl-1H-pyrazol-3-yl)-1,3,4-oxadiazol-2-yl]piperidin-3-yl]-2-(4-chloro-3-fluorophenoxy)acetamide]	0.5 to 2		4 (≈ 8.52 µM)	945 (≈ 2010 µM)	2 (≈ 4.26 µM)
